The source of these data is US5498522A, “Methods for the use of spermidine/spermine N^1 -acetyltransferase as a prognostic indicator and/or a tumor response marker” (priority 1993, dated 1996).

“And” between values parts separate entries of the source, which are not always exact repeats. Equal entries are not always repeated. “Also recorded” adds a separate entry of the source.

Data set [1] has as its system A121 human ovarian adenocarcinoma xenografts. The experiment in a line: antitumor response against A121 human ovarian adenocarcinoma xenografts in mice. The data set is classed as in vivo. As for the experimental part: (§1) […] where 1 represents length; w--width; and h--height. Tumor sizes were monitored 2 times/week until the median volume (V=0.4(a^2 ×b) where a is the smaller of the two perpendicular tumor diameters). As an indication of drug toxicity, animal weights were also recorded at the time of tumor volume measurement. Statistical analyses were performed on mouse tumor size and weight parameters by using the Mann-Whitney test.
(§2) Tumor growth suppression was measured by plotting the mean tumor volume versus the number of days post-inoculation with polyamine analog (growth curve analyses). Suppression is determined by comparison with the growth of untreated tumors (%T/C). More specifically,: %T/C is (treated tumor volume minus pretreatment volume) divided by (control tumor volume minus pretreatment volume)×100. Typically this is measured either when the control tumor volume reaches 1000 mm^3, or at the last day of treatment.
(§3) Tumor regression is measured as a percentage representing the average percentage of decrease in tumor volume from the largest pretreatment volume value.
(§4) Repression of regrowth is represented as regrowth delay, determined as the number of days following cessation of treatment when median group tumor volume exceeds 200 mm^3 (an arbitrary indication of regrowth which was determined statistically).
(§5) Cells from malignant solid human tumor tissue types, other than melanoma, have also been evaluated for their responsiveness to polyamine analog treatment including clonal cell lines A121 (human ovarian adenocarcinoma),A549 (lung adenocarcinoma), and HT29 colon adenocarcinoma). These cell lines were evaluated for the level of SSAT induction and potency of antitumor response following BENSPM treatment (80 mg/kg 3×/day×6 days) in-vivo using the methodology previously described in this embodiment. Also, dose of BENSPM was compared (80 mg/kg versus 40 mg/kg). The baseline of SSAT activity in the control mice (2 of 7 mice) ranged from 40 to 90 pmol/min/mg. Tumor cells from the human xenografts A121, A549, and HT29 were removed from two mice of each treated group of seven mice containing the respective xenograft at 16 hours following the final BENSPM injection to evaluate the level of induction of SSAT activity. […] The response to the polyamine analog was heterotypic. […] As discussed previously, it is not known whether the heterotypic antitumor response may be due to either the individual properties of the clonal line or the particular solid tumor type.
(In general: Xenograft models place foreign cells or tissue in a host animal.)

For data set [2], the system named is ornithine decarboxylase (ODC). In words: ODC activity in human melanoma xenografts in-vivo.
In data set [3] the test system is spermidine/spermine N^1 -acetyltransferase (SSAT). In words: SSAT induction in host tissue of treated mice. Format: in vivo, mouse. To be noted: spleen (PANUT-3 mice), 80 mg/kg.
Data set [4] concerns polyamine pools of host tissue. The experiment in a line: polyamine pools in host tissue of treated mice. Format: in vivo, mouse. Further details: unit not given here. To be noted: 40 mg/kg.
The subject of data set [5] is SH-1 human melanoma xenografts. The experiment in a line: antitumor response against SH-1 human melanoma xenografts in mice. The data set is classed as in vivo. The note with it: SH-1, BENSPM at 80 mg/kg. The procedure:
as §1, §2, §3, §4
(§6) For example, human melanoma cell lines including MALME-3, SH-1, PANUT-3 and LOX were evaluated for the level of SSAT induction and potency of antitumor response following BENSPM treatment (80 mg/kg 3×/day×6 days) using the methodology previously described in this embodiment. […] The baseline of SSAT activity in the control mice (2 examined of 7 mice) ranged from 50 to 90 pmol/min/mg. […] Note that following BENSPM treatment (as discussed above in the context of Tables 4 and 5), suppression of tumor growth of PANUT-3, unlike suppression of MALME-3 growth, lasted for only about 12 days. Further, the levels of SSAT in PANUT-3 at two weeks post-treatment, approached the levels in the control and correlated with the loss of antitumor activity.

Data set [6] deals with HT29 colon adenocarcinoma xenografts. In words: antitumor response against HT29 colon adenocarcinoma xenografts in mice. The data set is classed as in vivo, human. As for the experimental part:
as §1, §2, §3, §4, §5

Data set [7] has as its system PANUT-3 human melanoma xenografts. The experiment in a line: antitumor response against PANUT-3 human melanoma xenografts in mice. The data set is classed as in vivo. As for the experimental part:
as §1, §2, §3, §4, §6

Another data set deals with natural polyamine pools. The note with it: in-vitro; cited from earlier work.
Data set [8] deals with Ebey human melanoma cells. In words: growth of Ebey melanoma cells in-vitro (FIG. 5). Format: cell-based. The note with it: 10 μM BESPM, 48 hours. The procedure:
(§7) As mentioned previously, cells from malignant solid tumor respond to polyamine analog therapy heterotypically. SSAT induction and antitumor response may vary not only among the solid tumor tissue type, but also with the clonal line of tumor of a particular solid tissue type. However, a correlation between the level of induction of SSAT and the potency of antitumor response has been observed in tumors of a particular solid tissue type. For example, seven human melanoma cell lines were assayed in-vitro for their response, as determined by cell growth and level of SSAT induction, to 10 μM BESPM at 48 hours post-treatment. As summarized in FIG. 5, growth among the cell lines decreases as SSAT induction increases.

Data set [9] relates to NCI H157 human large cell lung carcinoma cell line. The note with it: cited from earlier work.
The next data set deals with LOX human melanoma cells. In words: growth of LOX melanoma cells in-vitro (FIG. 5). The data set is classed as cell-based. To be noted: 10 μM BESPM, 48 hours. As for the experimental part:
as §7

The mark [10] stands for this setting: A121, BENSPM 80 mg/kg 3x/d × 6d.
Where [11] appears, read: HT29, BENSPM 80 mg/kg 3x/d × 6d.

With `CCNCCCNCCCNCCCNCC` [BENSPM, N^1,N^11 -bis(ethyl)norspermine], the “% T/C at 1 g” value in data set [1] (setting [10]) is less than 0%; in data set [5], less than 0%; in data set [6] (setting [11]) it was 24%; in data set [7] (PANUT-3, BENSPM at 80 mg/kg), 10%. Besides, the “Tumor Regression” value in [1] (setting [10]) was “showed tumor regression; also recorded: Present”; in data set [5] it was “Present”; in [6] (setting [11]), “no measurable tumor regression and None”; in data set [7] (PANUT-3, BENSPM at 80 mg/kg), “Major”. Moreover, the “Regrowth Delay” value in [1] (A121, BENSPM 80 mg/kg 3x/d × 6d, dt 5 days) is recorded as 3.2 × dt; in data set [5] (dt 15 days) it was 2.1 × dt; in [6] (HT29, BENSPM 80 mg/kg 3x/d × 6d, dt 3.5 days), “None”; in [7] (PANUT-3, BENSPM at 80 mg/kg, dt 7 days), 2.7 × dt. For the same molecule, the “No Regrowth” value was 2 of 5 and 2/5 in data set [1] (A121, BENSPM 80 mg/kg 3x/d × 6d, for duration of experiment); 1/5 in data set [5] (for duration of experiment); “two of five mice examined showed no regrowth and 2/5” in [6] (HT29, BENSPM 80 mg/kg 3x/d × 6d, for duration of experiment); 0/5 in data set [7] (PANUT-3, BENSPM at 80 mg/kg, for duration of experiment). In data set [1] (A121 xenograft, 80 mg/kg 3×/day×6 days), the “total growth suppression period” value is given as 16 days. Further, the “ODC levels” value in data set [2] (MALME-3 study) was “ODC and SAMDC levels were not suppressed”; in [2] (PANUT-3 study), “ODC and SAMDC levels were not suppressed”. In addition, the SSAT activity in data set [3] (2 wks post-treatment) was 48/40; in [3] (16 hrs post-treatment), 163/322. Also, the PUT pool is on record as 20/20 in data set [4] (kidney, 2 wks post-treatment); 100/40 in [4] (kidney, 16 hrs post-treatment); 20/20 in data set [4] (liver, 2 wks post-treatment); 90/100 in data set [4] (liver, 16 hrs post-treatment). Moreover, the SPD pool in [4] (kidney, 2 wks post-treatment) is recorded as 210/210; in data set [4] (kidney, 16 hrs post-treatment), 100/100; in data set [4] (liver, 2 wks post-treatment), 530/530; in [4] (liver, 16 hrs post-treatment), 80/90. Besides, the SPM pool in data set [4] (kidney, 2 wks post-treatment) is recorded as 360/370; in data set [4] (kidney, 16 hrs post-treatment), 260/250; in data set [4] (liver, 2 wks post-treatment), 400/330; in data set [4] (liver, 16 hrs post-treatment), 170/200. Also, the growth rate result in data set [6] (HT29 xenograft, 80 mg/kg 3×/day×6 days) is “reduced growth rate”. Moreover, the “tumor regression, PANUT-3 versus MALME-3” value in data set [7] (BENSPM 80 mg/kg 3×/day×6 days) was “significantly more tumor regression”. Besides, the “duration of suppression of tumor growth” value in data set [7] (PANUT-3 xenograft, following BENSPM treatment) is “about 12 days”.

On to `CCNCCCNCCCCNCCCNCC` [BESPM, N^1,N^12-bis(ethyl)spermine], for which the natural polyamine pools result in the data set on natural polyamine pools is recorded as “deplete natural polyamine pools”. Moreover, the “growth inhibition (FIG. 5)” value is “greatest growth inhibition” in data set [8] and “least growth inhibition” in the data set with LOX human melanoma cells. The “cytotoxic response and SSAT induction” value in data set [9] is reported as “associated with a high induction of SSAT”.
